These are literature values, as cited in publication PMC6332596 (Journal of Hematology & Oncology, 2019).

On the set-up of this data set: method as in PMID 25933833, PMID 21131552. Particulars: compared with chiauranib; cited from earlier work.

With `Nc1ncc(-c2cnn(CCO)c2)c2scc(-c3ccc(NC(=O)Nc4cccc(F)c4)cc3)c12` [Ilorasertib], the “DLTs in phase I trials” value was “more DLTs, such as pancreatic disease and hypertension, fatigue, cholecystitis, and QTc prolonged”.

`Cc1cc(Nc2cc(N3CCN(C)CC3)nc(/C=C/c3ccccc3)n2)n[nH]1` [ENMD-2076]: the “DLTs in phase I trials” value was “more DLTs, such as pancreatic disease and hypertension, fatigue, cholecystitis, and QTc prolonged”.
